Measured values as given in US20040106135A1, “Assay for PPAR ligand dependent gene modulation” (priority 2002, published 2004).
Marks after values point to notes of the source that are not given here.

Experiments:
[1] = test system: ADRP mRNA in HK-2 cells (endogenous PPARα); assay: ADRP mRNA induction in HK-2 cells (real-time RT-PCR); assay type: cell-based, human; details: 100 nM GW9578
Description: Values were normalized to 18S rRNA levels.
Cell culture: The following cell lines were obtained from American Type Culture Collection (ATCC) and cultured in the recommended medium for each cell type: HepG2, HK-2, Caki-1, LNCaP (CloneFGC), SW872, and ACHN. PPARα compounds were prepared to a 500× stock in DMSO; corresponding control cells received an equal volume of vehicle (0.2% v/v).
Real-time PCR: Fluorescence-based real-time PCR was performed essentially as described (Abbaszade et al., (1999) J. Biol. Chem. 274:23443-23450). […] Taqman-based real-time PCR expression profiling was performed using 25 ng of each cDNA according to the manufacturer's (PE Biosystems) instructions with fluorescence being monitored in real-time with an ABI Prism 7700 (PE Biosystems). Relative expression levels were determined essentially as described (Gibson et al., (1996) Genome Res. 6:995-1001) using standard curves for each transcript. Relative abundance was then determined from these standard curves, subtracting mRNA levels obtained from negative control reactions performed in the absence of reverse transcriptase, and normalized to 18S rRNA levels. […]

[2] = test system: Caki-1 cells; assay: Transcriptional profiling by DNA microarray, Caki-1 cells; assay type: cell-based, human
Description: Expression profiling: Expression profiling of RNA samples was performed essentially as described (Lockhart et al., (1996) Nat. Biotechnol. 14:1675-80) using the Affymetrix human U95Av2 array. Briefly, RNA was isolated from 100 mm cell culture dishes, DNased, and 15 μg used as a template for double stranded cDNA synthesis according to standard protocols (Invitrogen). Reverse transcription was primed using a T7-modified oligo-dT primer (5-[…]-d(T)24-3′) (SEQ ID NO: 1). In vitro transcription was then performed on each double stranded cDNA synthesis, according to the manufacturer's (Enzo Diagnostics) instructions. The resultant cRNA products were purified using RNeasy columns (Qiagen), pooled, and quantitated spectrophotometrically. For each sample, 20 μg of in vitro transcribed cRNA was fragmented by heating the sample to 94° C. in the presence of 40 mM Tris-acetate, pH 8.1, 100 mM potassium acetate, and 30 mM magnesium acetate. […]
Data Analysis: Affymetrix CEL files from GeneChip 4.0 (Affymetrix) were imported into Resolver 2.0 under an empirically derived Affymetrix error model (Rosetta Inpharmatics). […] Accordingly, the statistical significance (P-value) of a given expression data point takes into account the underlying error associated with the Affymetrix transcript abundance measurements as determined by this platform-specific error model. […]

[3] = Serum triglyceride levels in fat-fed hamsters; assay type: in vivo, hamster
Description: Blood was sampled at 8, 16 and 48 hours following a single drug treatment for total triglyceride analysis. The mean levels (+/−SEM) for 3 animals per group are shown. The “*” indicates a statistically significant difference with respect to control (p<0.01) by Student's t-test. Animal studies: All procedures performed in this study were approved by the Animal Care and Use committee, and conform to the guide for the Care and Use of Laboratory Animals Act. Male Syrian Golden hamsters (Charles River, Wilmington Mass.) weighing 120-140 g, were used in the study. Animals were kept on a 12-hour light/dark cycle and allowed free access to normal chow and water. The animals were divided into groups according to weight, and fed either an high fat diet (0.5% cholesterol, 5% coconut oil) (N=3) or normal chow diet (N=3). […] At intervals of 0, 8, 16 and 48 hr animals were anesthetized with CO2. Blood was collected by cardiac puncture into EDTA containing tubes; plasma was isolated for immediate analysis of triglycerides by the Dade Clinical Analyser®. Animals were then euthanized with CO2. The liver and kidneys were collected, flash frozen in liquid nitrogen and stored at −80° C. for future gene expression analysis.

## CCCCCCCN(CCc1ccc(SC(C)(C)C(=O)O)cc1)C(=O)Nc1ccc(F)cc1F [GW9578, ureido-thioisobutyric acid]
[1]
  Time to near maximal increase of ADRP mRNA: ≤ 2 h
[2]
  Changes in gene expression in Caki-1 cells: only minor changes
[3]; single dose, 8, 16 and 48 hours
  Change of triglyceride levels compared with the control group: significantly decreased
[3]; single dose, mean +/- SEM, 3 animals, control 208.67
  Serum triglyceride levels, 48 h: 104.67 + 12.02*
[3]; single dose, mean +/- SEM, 3 animals, control 261.33
  Serum triglyceride levels, 8 h: 106.00 + 46.22*
[3]; single dose, mean +/- SEM, 3 animals, control 308.00
  Serum triglyceride levels, 16 h: 142.33 + 51.31*
